Results as given in patent US11998767B2, “Hand sanitizers with improved aesthetics and skin-conditioning to encourage compliance with hand hygiene guidelines” (GOJO Industries, Inc., priority 2014, dated 2024).

Experiments:
ABCA12 = assay: Skin barrier biomarker gene expression, real-time RT-PCR, keratinocyte monolayer; assay type: cell-based, human; details: gene expression level, keratinocytes treated 24 hours; Control C KGM 100%; concentration differs per example
Protocol: (§1) An in vitro model was employed, using monolayer human dermal keratinocytes culture (KGM). Two controls were tested: the medium and inflammatory cytokines interleukin (IL-1b).
(§2) Skin Barrier: • Biomarkers: ABCA12, Involucrin, PPARδ • Using different concentration of ingredients to treat the keratinocyte for 24 hours • Collect the cells and prepare total RNA from the treated cells • Using Real-time RT-PCT to detect different barrier function related biomarker's gene expression level • Comparative Benchmark: Vitamin D3 (cholecalciferol) in three different concentrations
ABCA12 is also known as ATP-binding cassette transporter 12. It is a protein that in humans is encoded by the ABCA12 gene. The ABCA12 gene is active in some types of skin cells. The ABCA12 protein appears to be essential for normal development of the skin, which provides a barrier between the body and its surrounding environment. It plays an important role in transporting lipids (free fat acids) in cells that make up the outermost layer of skin (the epidermis). Generally, the higher expression, the better skin barrier function is.

Involucrin = assay: as above; assay type: cell-based, human; details: gene expression level, keratinocytes treated 24 hours; Control C KGM 100%; concentration differs per example
Protocol: as §1, §2
Involucrin is a protein component of human skin. It's a biomarker for keratinocyte differentiation. In binding the protein loricrin, involucrin contributes to the formation of a cell envelope that protects corneocytes in the skin stratum corneum. The higher expression, the better skin barrier function is.

PPARδ = assay: as above; assay type: cell-based, human; details: gene expression level, keratinocytes treated 24 hours; Control C KGM 100%; concentration differs per example
Protocol: as §1, §2
PPARδ is Peroxisome proliferator-activated receptor, also known as NR1C2. It is a nuclear receptor that in humans is encoded by the PPARD gene. […] Generally, the higher expression, the better skin barrier function is.

TNF-α = TNF-α ELISA, as IL-8 method, PMA-treated human dermal keratinocytes; assay type: cell-based; details: niacinamide in cell culture medium, co-treated with PMA; amount (wt. %) differs per example; Control A medium 100%, Control B PMA 0.0%
Description: For Control A, human dermal keratinocytes are left untreated. No irritation is expected, and therefore Control A provides a baseline. For Control B, IL-8 is induced in human dermal keratinocytes by applying phorbol 12-myristate 13-acetate (PMA). For all other samples, the human dermal keratinocytes are co-treated with PMA and a composition containing the ingredient of interest. Decreased 11-8 expression reflects the ingredient's anti-irritation activity.
(§3) The following steps were followed: 1. Coat EIA high binding 96-well plate with IL-8 capture antibody overnight at room temperature. 2. Prepare all reagents, standard dilutions, and samples. 3. Wash the coated plate with 350 μL/well of washing buffer 4 times, then adding 300 μL/well of blocking solution incubating 1 hour at room temperature. 4. Repeat washing step with 350 μL/well of wash buffer (4 times). 5. Add 100 μL, of Standard, control, or sample to each well. Cover with a plate sealer, and incubate at room temperature for 2 hours. 6. Aspirate each well and wash, repeating the process 3 times for a total of 4 washes. 7. Add 100 μL, of detection IL-8 antibody to each well. Cover with a new plate sealer, and incubate at room temperature for 2 hours. 8. Aspirate and wash 4 times. 9. Add 100 μL, Biotin-Strepavidin conjugate to each well, incubating 20 minutes at room temperature. 10. Aspirate and wash 4 times. 11. Add 100 μL, substrate Solution to each well. Incubate at room temperature for 20 minutes, making sure to protect the wells from the light. 12. Add 50 μL, of Stop Solution to each well. Data collected—using a colorimeter, absorbance was measured at 450 nanometers (nm) within 30 minutes. Wavelength correction was set to 570 nm.
Samples were tested similarly to the method described above, except that TNF-α was used instead of IL-8.

IL-8 = IL-8 ELISA, PMA-induced IL-8 in human dermal keratinocytes; assay type: cell-based; details: niacinamide in cell culture medium, co-treated with PMA; amount (wt. %) differs per example; Control A medium 100%, Control B PMA 0.0%
Description: as §3, with “Interleukin 8 (IL-8) is a chemokine and proinflammatory cytokine produced by macrophages and other cell types such as epithelial cells. It is secreted from keratinocytes in skin in response to inflammatory stimuli. IL-8 is secreted and is an important mediator of the immune reaction in the innate immune system response. IL-8 overexpressed is a biomarker of skin irritation. […] No irritation is expected, and therefore Control A provides a baseline. […] Decreased 11-8 expression reflects the ingredient's anti-irritation activity. In order to carry out the test method, an assay kit was employed that was obtained from R&D Systems: Human CXCL8/IL-8 Duoset ELISA Development Kit. The” for “The”

[1] = test system: human dermal keratinocytes; assay: MTT assay, cell viability of PMA-treated keratinocytes; assay type: cell-based; details: co-treated with PMA, amount (wt. %) differs per example, Control A medium 100%
Description: The MTT assay is a colorimetric assay for assessing cell viability, cell proliferation, and/or cytotoxicity. NAD(P)H-dependent cellular oxidoreductase enzymes may, under defined conditions, reflect the number of viable cells present. These enzymes are capable of reducing the tetrazolium dye MTT 3-(4,5-dimethylthiazol-2-yl)-2,5-diphenyltetrazolium bromide to insoluble formazan, which has a purple color. MTT assay can also be used to measure cytotoxicity (loss of viable cells) or cytostatic activity (shift from proliferative to resting status) of potential medicinal agents and toxic materials.
Controls A and B described above for the IL-8 Assay were also employed in this test. The mitigating effect of the test samples on the effect of Control B on the keratinocytes was measured. More specifically, while Control B has a negative effect on cell viability, cell proliferation, and/or cytotoxicity, this mitigation of this negative effect was determined by measuring the reduction of MTT.
The following steps were followed: Once the liquid was removed from the wells for the IL-8 Assay described above, 100 μl/well of 0.5 mg/ml of MTT in phenol red-free DMEM (cell culture medium) was added into each of the 96-well plates. After incubating 1 hour at 37° C., all liquid was removed (MTT solution) from the wells of the culture plate. Then 100 μl of DMSO was added to each well to completely dissolve the purple product. Absorption was measured using a plate reader at 550 nm wavelength.

Structure (SMILES) | ABCA12 (%) (ABCA12) | Involucrin (Involucrin) [%] | PPARδ (PPARδ) [%] | further results
NC(=O)c1cccnc1 [Example 36, Niacinamide] | 806 | 817 | 164 | –
C=C1CC[C@H](O)C/C1=C/C=C1\CCC[C@]2(C)[C@@H]([C@H](C)CCCC(C)C)CC[C@@H]12 [Comparative 1, Vitamin D3 (cholecalciferol), reference compound] | 58 | 384 | 752 | –
NC(=O)c1cccnc1 [Example 24, Niacinamide] | – | – | – | TNF-α Inhibition (%) (TNF-α): 29.6%
NC(=O)c1cccnc1 [Example 19, Niacinamide] | – | – | – | IL-8 Inhibition (%) (IL-8): 20.86%
NC(=O)c1cccnc1 [Example 30, Niacinamide] | – | – | – | Cell Viability (%) ([1]; niacinamide series): 95%
NC(=O)c1cccnc1 [Example 16, Niacinamide] | – | – | – | IL-8 Inhibition (%) (IL-8): 0.0%
C=C1CC[C@H](O)C/C1=C/C=C1\CCC[C@]2(C)[C@@H]([C@H](C)CCCC(C)C)CC[C@@H]12 [Comparative 3, Vitamin D3 (cholecalciferol), reference compound] | 42 | 406 | 238 | –
NC(=O)c1cccnc1 [Example 32, Niacinamide] | – | – | – | Cell Viability (%) ([1]; niacinamide series): 87%
NC(=O)c1cccnc1 [Example 29, Niacinamide] | – | – | – | Cell Viability (%) ([1]; niacinamide series): 97%
NC(=O)c1cccnc1 [Example 27, Niacinamide] | – | – | – | TNF-α Inhibition (%) (TNF-α): 45.1%
NC(=O)c1cccnc1 [Example 22, Niacinamide] | – | – | – | IL-8 Inhibition (%) (IL-8): 32.04%
NC(=O)c1cccnc1 [Example 37, Niacinamide] | 447 | 1589 | 378 | –
NC(=O)c1cccnc1 [Example 31, Niacinamide] | – | – | – | Cell Viability (%) ([1]; niacinamide series): 99%
NC(=O)c1cccnc1 [Example 38, Niacinamide] | 499 | 1656 | 863 | –
NC(=O)c1cccnc1 [Example 33, Niacinamide] | 41 | 156 | 82 | –
NC(=O)c1cccnc1 [Example 26, Niacinamide] | – | – | – | TNF-α Inhibition (%) (TNF-α): 45.6%
NC(=O)c1cccnc1 [Example 28, Niacinamide] | – | – | – | TNF-α Inhibition (%) (TNF-α): 52.7%
NC(=O)c1cccnc1 [Example 17, Niacinamide] | – | – | – | IL-8 Inhibition (%) (IL-8): 16.53%
C=C1CC[C@H](O)C/C1=C/C=C1\CCC[C@]2(C)[C@@H]([C@H](C)CCCC(C)C)CC[C@@H]12 [Comparative 2, Vitamin D3 (cholecalciferol), reference compound] | 45 | 208 | 334 | –
NC(=O)c1cccnc1 [Example 21, Niacinamide] | – | – | – | IL-8 Inhibition (%) (IL-8): 33.20%
NC(=O)c1cccnc1 [Example 23, Niacinamide] | – | – | – | TNF-α Inhibition (%) (TNF-α): 28.2%
CCCCCCCCCCCCCC(=O)O[C@@H]1[C@@H](C)[C@@]2(O)[C@@H](C=C(CO)C[C@]3(O)C(=O)C(C)=C[C@@H]23)[C@@H]2C(C)(C)[C@]12OC(C)=O [Control B, phorbol 12-myristate 13-acetate, reference compound] | – | – | – | Cell Viability (%) ([1]; avenanthramide series): 95%; Cell Viability (%) ([1]; niacinamide series): 95%
NC(=O)c1cccnc1 [Example 25, Niacinamide] | – | – | – | TNF-α Inhibition (%) (TNF-α): 28.6%
NC(=O)c1cccnc1 [Example 35, Niacinamide] | 192 | 441 | 136 | –
NC(=O)c1cccnc1 [Example 18, Niacinamide] | – | – | – | IL-8 Inhibition (%) (IL-8): 16.64%
NC(=O)c1cccnc1 [Example 20, Niacinamide] | – | – | – | IL-8 Inhibition (%) (IL-8): 28.85%
NC(=O)c1cccnc1 [Example 34, Niacinamide] | 120 | 192 | 88 | –
